Reference: patent US20230123863A1, “A GLIA CELL AND NEURON CO-CULTURE SYSTEM AND METHOD” (National Yang-Ming University, priority 2020, published 2023)

Key:
[1] = target: T1, aryl hydrocarbon receptor (AHR) (Mus musculus, UniProt P30561); conditions: WT mice, cited from earlier work
T1 construct: the brains of adult mice were used to study the effect of aryl hydrocarbon receptor modulation; from tissue; host or cells: adult mouse brain, peri-infarct cortex (in vivo)
T1 sequence (P30561 10-848): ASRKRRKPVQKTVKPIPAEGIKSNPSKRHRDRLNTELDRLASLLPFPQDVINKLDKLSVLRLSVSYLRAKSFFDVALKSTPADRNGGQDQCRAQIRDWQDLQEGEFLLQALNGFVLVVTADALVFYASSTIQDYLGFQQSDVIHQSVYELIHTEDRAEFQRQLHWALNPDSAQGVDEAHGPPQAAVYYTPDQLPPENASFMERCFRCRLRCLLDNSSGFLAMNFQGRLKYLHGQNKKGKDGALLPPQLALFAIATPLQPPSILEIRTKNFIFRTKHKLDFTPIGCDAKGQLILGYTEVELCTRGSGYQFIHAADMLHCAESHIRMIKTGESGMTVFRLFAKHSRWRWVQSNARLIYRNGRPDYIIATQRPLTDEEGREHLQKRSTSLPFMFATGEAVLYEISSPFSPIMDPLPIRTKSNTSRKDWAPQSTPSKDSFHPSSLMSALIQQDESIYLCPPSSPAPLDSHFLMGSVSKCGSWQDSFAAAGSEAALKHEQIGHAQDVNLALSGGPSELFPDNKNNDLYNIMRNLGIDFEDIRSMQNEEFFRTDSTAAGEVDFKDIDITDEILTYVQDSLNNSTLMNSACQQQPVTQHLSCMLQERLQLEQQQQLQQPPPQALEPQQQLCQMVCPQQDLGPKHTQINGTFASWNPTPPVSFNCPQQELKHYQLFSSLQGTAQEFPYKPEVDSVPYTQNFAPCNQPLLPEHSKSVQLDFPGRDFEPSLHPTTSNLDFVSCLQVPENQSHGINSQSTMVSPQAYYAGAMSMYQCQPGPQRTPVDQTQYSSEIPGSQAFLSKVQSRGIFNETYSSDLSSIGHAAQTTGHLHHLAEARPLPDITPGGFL

mouse hippocampi = assay: intraperitoneal LPS injection, astrocyte and microglia plasticity in hippocampi; assay type: in vivo; conditions: LPS i.p. for 7 days at 3 mg/kg body weight per injection, vs saline
Method: To validate the results of in vitro LPS treatment of the present invention, LPS was injected intraperitoneally in mice for 7 days at 3 mg/kg body weight per injection and the astrocyte and microglia plasticity in mouse hippocampi examined. […] Astrocytes were marked with GFAP and colored in green, while cell nuclei were marked with DAPI and colored in blue.
Microglia were marked with Iba-1 and colored in green, while cell nuclei were marked with DAPI and colored in blue.

[2] = tested on: rat cerebral cortex cells; assay: LPS neuroinflammation in cerebral cortex cells cultured in the media of Table 3; assay type: cell-based; conditions: for percentages of MAP2 positive cells in the total population (neurons): 1 μg/mL LPS for 24 hours on day 13
Excerpt: The efficacies of simulating in vivo cell morphology, cell interactions and responses to stimuli in vitro using mGNCM of different ratios of modified neuron medium (mNM) and glia culture medium (GCM) were compared, 1:1:, 2:1 and GCM only groups, and the GCM only group comprising only GCM and 10% FBS as shown in Table 3 above.
The effects of neuroinflammation simulation of rat cerebral cortex cells grown in vitro using the three embodiments of mGNCM of Table 3 were examined. Cells obtained from rat cerebral cortex were cultured in vitro for 13 days using the three culture media above, then treated with 1 μg/mL of lipopolysaccharides (LPS) for 24 hours on day 13 to trigger inflammation. Following LPS treatment, immunostaining was performed to observe cell population, morphology, and response to inflammatory stimulus.
The immunostaining images of FIG. 5 show neuronal population and response to LPS stimulation, wherein CTL represents control groups (not subjected to LPS treatment) and LPS represents groups treated with LPS to induce neuroinflammation. The images show astrocyte cytoskeleton marked with GFAP and colored in red, neuron dendrites marked with MAP2 and colored in green, as well as cell nuclei marked with DAPI and colored in blue. FIGS. 5A1-5A3 and 5B1-5B3 show cells cultured with GCM only, FIGS. 5C1-5C3 and 5D1-5D3 show cells cultured with 1:1 mNM and GCM, while FIGS. 5E1-5E3 and 5F1-5F3 show cells cultured with 2:1 mNM and GCM. The GCM only group comprises fewer neurons, and the cells are smaller and unhealthier in both CTL and LPS treatment groups.

[3] = tested on: cells extracted from rat cerebral cortex; assay: LPS neuroinflammation and cell type population in glia cell and neuron co-culture in the media of Table 4; assay type: cell-based
Method: To further examine the effects of various embodiments of mGNCM with different ratios of mNM and GCM of the present invention on cell type population and morphology of rat glia cells and neurons co-culture, six cell culture media were prepared to the specifications of Table 4.
On postnatal day 0 (P0), cells extracted from rat cerebral cortex were inoculated in each of the cell culture media of Table 4. Following 14 days of in vitro cultivation, immunostaining was performed on the control groups (CTL) to aid in the observation of cell type ratios, specifically of neurons, astrocytes, and microglia, and oligodendrocytes as well as cell morphology. Cultures of the LPS groups (LPS) were subjected to inflammatory stimulation via 1 μg/mL LPS at 13 days in vitro. After another 24 hours, the LPS groups were subjected to immunostaining as well, for the observation of cell morphology and cell count.

[4] = tested on: dorsal hippocampus of male SD adult rats; assay: kainic acid i.c.v. injection-induced hippocampal damage, NeuN, MAP2 and GLT-1 immunostaining; assay type: in vivo, rat
Method: To validate the in vitro results, the effect of sEH inhibition on neuronal loss in the hippocampus after excitotoxic insult was investigated in vivo. First examined was the effect of CNS administration of AUDA on kainic acid (KA), an epileptic seizure-inducing substance, i.c.v. injection-induced hippocampal damage in male SD adult rats. The extent of neuronal damage in the dorsal hippocampus was examined 24 h after the KA injection by immunostaining with NeuN and MAP2 for neuronal nuclei and dendrites, respectively.
Eight-week-old male SD rats were subjected to unilateral i.c.v. injection of saline, KA, or KA with the sEH inhibitor AUDA. Rat brains were harvested 24 h after the injection for immunohistochemistry.
NeuN^+ cells of each hippocampal subregion were determined by counting the number of NeuN^+/DAPI^+ cells and then normalized with respective saline treatment group. MAP2 area was determined by the percentage of the immunoreactive area in each hippocampal region of interest and then normalized with the respective saline treatment group. […] Scale bar=100 μm. When compared with FIGS. 20-23, it can be seen that the results of in vivo trials were more similar to those of the GN culture than the NE culture.
FIG. 27 is a quantitative analysis of images in FIG. 25. GLT-1 area was determined by the percentage of the immunoreactive area in each hippocampal region of interest and then normalized with the respective saline treatment group. Note that GLT-1 immunoreactivity was depleted in the stratum pyramidale (SP) and stratum lucidum (SL) layers of CA3 in the KA treatment group, and the effect was attenuated by the AUDA pretreatment.

[5] = tested on: Primary rat cortical GN mix cultures; assay: NMDA-induced neurotoxicity in primary cortical glia-neuron (GN) mix culture, MAP2 and TUNEL staining; assay type: cell-based; conditions: 9 DIV, 30 min pretreatment with 0.1 μM 14,15-EET or 10 μM AUDA, 24 h
Method: Primary cortical NE cultures were prepared from embryonic day 17 SD fetal rats. The cultures were maintained in Neurobasal™ medium, and 9-10 days in vitro (DIV) culture was used for the study. Primary astrocyte cultures were prepared from SD rat pups at P1-2, with the purified astrocytes grown in 50% DMEM/50% Neurobasal™ medium containing heparin-binding EGF-like growth factor (HBEGF) or GNCM wherein GCM and NM are at a ratio of 1:1. Primary glia-neuron mix cultures were prepared from P0 rat brains. The harvested cerebral cortex was mechanically triturated in glia culture medium (GCM), comprising DMEM supplemented with 10% FBS. The mixture was stationed at room temperature for 1 minute, and the supernatant centrifuged at 1,500 rpm to obtain the cell pellet. The pellet was resuspended in GCM and seeded onto 24-well plates coated with poly-L-lysine (0.1 mg/mL). The culture medium was replaced with an embodiment of the GNCM medium of the present invention comprising a 1:1 mixture of GCM and B-27-containing Neurobasal™ 1 hour after the initial seeding.
The day of cell plating was considered as 0 DIV, and 9-10 DIV cultures were used for the experiments.
Primary rat cortical GN mix and NE cultures at 9 days in vitro were pretreated with 0.1 μM 14,15-EET, 10 μM 12-(3-adamantan-1-yl-ureido)-dodecanoic acid (AUDA), or vehicle for 30 min, and then treated with or without 14,15-epoxyeicosa-5(Z)-enoic acid (14,15-EEZE) (EZ) or N-methyl-D-aspartate (NMDA). Representative immunofluorescent images of MAP2 and TUNEL staining in GN mix and NE cultures were treated as indicated for 24 h. Total cell nuclei were counterstained with DAPI. Scale bar=50 μm.
Neuron dendrites were marked with MAP2 and colored in red, cell nuclei were marked with DAPI and colored in blue, while cell death was marked with TUNEL and colored in green.
Both MAP2^+ neurite density and TUNEL^+ cells were normalized by the total DAPI number in each quantified microscopic field.

Oligodendrocytes = assay: excitotoxic NMDA treatment of oligodendrocytes in GN mix culture (RIP/NF200 staining); assay type: cell-based, mouse; conditions: NM:GCM 1:1 medium, 5 μM NMDA at 14 DIV for 24 hour
Method: Oligodendrocytes obtained from mouse primary neonatal brain cells cultivated using the GN culture compositions provided in table 4 were treated with 5 μM NMDA at 14 DIV for 24 hour.
The cell nuclei are characterized by immunostaining shown in blue. […] Moreover, the response of oligodendrocytes to excitotoxic NMDA treatment can further mimic excitotoxicity-induced demyelination.

[6] = TMF 5 mg/kg/day intraperitoneally, 48 h after MCAO
[7] = all groups except for the GCM only group, 1 μg/mL LPS, 24 hours
[8] = DGh and CA3, unilateral i.c.v. injection, 24 h after injection
[9] = DGh and CA3, KA i.c.v. vs saline, 24 h

Question: For COc1ccc(-c2cc(=O)c3cc(OC)ccc3o2)c(OC)c1 [TMF, 6,2′,4′-trimethoxyflavone], which “GFAP-positive astrogliosis at the peri-infarct cortex after MCAO” value [1, 6] is on record?
Answer: markedly decreased

Question: What about the “Iba1-positive microgliosis at the peri-infarct cortex after MCAO” value [1, 6] of the same compound?
Answer: markedly decreased

Question: What about the “AHR immunoreactivity colocalized within Iba1-positive microglia and GFAP-positive astrocytes after MCAO” value ([1]; TMF-treated vs vehicle-treated, peri-infarct cortex) of the same compound?
Answer: markedly decreased

Question: For lipopolysaccharides [LPS], which “astrocyte plasticity (GFAP) in hippocampal CA1 and CA3” value (mouse hippocampi) is on record?
Answer: induced astrocyte hypertrophy and proliferation

Question: What about the “microglia plasticity (Iba-1) in hippocampal CA1” value (mouse hippocampi) of the same compound?
Answer: induced microglial hypertrophy and proliferation

Question: What about the “astrocyte hypertrophy (GFAP)” value ([2]; 1:1 group and 2:1 group, 1 μg/mL LPS for 24 hours) of the same compound?
Answer: can be found

Question: And the “microglia cell density and cell size (Iba1)” value ([2]; 1:1 group, 1 μg/mL LPS for 24 hours)?
Answer: marked increase

Question: And the “percentages of MAP2 positive cells in the total population (neurons)” value ([2]; 1:1 group)?
Answer: induces neuronal loss

Question: And the “percentages of MAP2 positive cells in the total population (neurons)” value ([2]; GCM only and 2:1 groups)?
Answer: not affected in this way

Question: What about the “astrocyte hypertrophy (GFAP)” value ([2]; GCM only group, 1 μg/mL LPS for 24 hours) of the same compound?
Answer: not observed

Question: And the “Iba1 positive area per cell, control vs LPS groups” value ([3]; 1:1, 2:1, and 4:1 groups, 1 μg/mL LPS, 24 hours)?
Answer: significant differences

Question: What about the “percentage of neurons in total cells (MAP2-circled cells in total DAPI)” value ([3]; 2:1 mGNCM group, 1 μg/mL LPS, 24 hours) of the same compound?
Answer: significant neuronal loss

Question: What about the “microglia morphology (Iba1)” value [3, 7] of the same compound?
Answer: induces microglial hypertrophy (microgliosis)

Question: What about the “percentage of neurons in total cells (MAP2-circled cells in total DAPI)” value [3, 7] of the same compound?
Answer: reduced

Question: And the “oligodendrocyte (OL) cell density” value ([3]; different groups of GN mix cultures, 1 μg/ml LPS)?
Answer: does not affect

Question: What about the “percentage of astrocytes in total cells (GFAP-circled cells in total DAPI)” value ([3]; groups of Table 4, 1 μg/mL LPS, 24 hours) of the same compound?
Answer: does not cause significant proliferation or death of astrocytes

Question: What about the oligodendrocyte process shrinkage ([3]; mNM:GCM 0.5:1 and 1:1 media, 1 μg/ml LPS) of the same compound?
Answer: can be observed

Question: What about the “percentage of microglia in total cells (Iba1 positive cells in total DAPI)” value ([3]; mNM:GCM 1:1 medium only, 1 μg/mL LPS, 24 hours) of the same compound?
Answer: induces significant microglia proliferation

Question: What about the “microglia number (Iba1 images)” value ([3]; mNM:GCM 2:1 co-culture system, 1 μg/mL LPS, 24 hours) of the same compound?
Answer: induces an increase of microglia

Question: What about the “astrocyte morphology (GFAP)” value ([3]; media of Table 4, 1 μg/mL LPS at 13 DIV, 24 hours) of the same compound?
Answer: induces astrocyte hypertrophy and process arborization

Question: Which results are given for O=C(O)CCCCCCCCCCCNC(=O)NC12CC3CC(CC(C3)C1)C2 [AUDA, 12-(3-adamantan-1-yl-ureido)-dodecanoic acid]?
Answer: KA-induced MAP2+ dendrite damage [4, 8]: significantly attenuated; KA-induced NeuN+ cell loss [4, 8]: significantly attenuated; KA-induced depletion of GLT-1 immunoreactivity ([4]; SP and SL layers of CA3, AUDA pretreatment): attenuated; NMDA-induced MAP2+ neurite reduction [5]: significantly attenuated; NMDA-induced cell death (TUNEL+ cells) [5]: significantly attenuated

Question: What does the source list for C=C(C)[C@H]1CN[C@H](C(=O)O)[C@H]1CC(=O)O [KA, kainic acid]?
Answer: MAP2+ dendrite area [4, 9]: significantly reduced; NeuN+ neurons [4, 9]: significantly reduced; GLT-1 immunoreactivity ([4]; SP and SL layers of CA3, KA treatment group): depleted

Question: Which “oligodendrocyte process extension and arborization” value (Oligodendrocytes) does the source give for CN[C@H](CC(=O)O)C(=O)O [NMDA, N-methyl-D-aspartate] here?
Answer: disrupts

Question: With CCCCCC1OC1CC=CCC=CCC=CCCCC(=O)O (stereo not shown) [14,15-EET, 14,15-epoxyeicosatrienoic acid] as the compound, how does the “NMDA-induced MAP2+ neurite reduction” value [5] read?
Answer: significantly attenuated

Question: And the “NMDA-induced cell death (TUNEL+ cells)” value [5]?
Answer: significantly attenuated
